Our source for the IC50 values is ChEMBL document CHEMBL5727929, “CXCR4 inhibitors and uses thereof” (2020).

Structures are written as SMILES.

The IC50 is the concentration at which inhibition is half-maximal.

This test can be described thus: Binding Inhibition Assay: Jurkat cells expressing CXCR4 were washed once with assay buffer (Hanks' balanced salt solution with 20 mM HEPES buffer and 0.2% bovine serum albumin, pH 7.4) and then incubated for 15 min at room temperature with the test compounds diluted in assay buffer at dose-dependent concentrations. Subsequently, CXCL12-AF647 (25 ng/mL) was added to the compound-incubated cells. The cells were incubated for 30 min at room temperature. Thereafter, the cells were washed twice in assay buffer, fixed in 1% paraformaldehyde in PBS, and analyzed on the FL4 channel of a FACSCalibur flow cytometer equipped with a 635-nm red diode lase. A general note: In flow cytometry, cells or beads pass a laser one at a time.

Regarding `CC[C@H](O)c1c([C@H]2CCC[C@@H](c3ncccc3C)N2C)nc2cccc(N3CCN(C)CC3)n12`, the IC50 was 0.01 to 100 nM.
